From publication PMC2864571 (2010) come the findings set out here.

Like-named read-outs stand apart in the source and are kept apart here.

The subject of experiment [1] is pfl RNA (RNA, riboswitch) GGUAAAAUAAGAAAAUCAUGCAACUGGCGGAAAUGGAGUUCACCAUAGGGAGCAUGAUUAAUAUAAGAAUCGACCGCCUGGGUAAAUUAAUA
The experiment is described as follows: RNase T1 and V1 protection assay. As to conditions: PRPP unstable; 1 mM in in-line probing list.

Experiment [2] concerns SAM-Chlorobi RNA (third construct, shorter 3' end) (RNA, mRNA element) GGAUUUUCCGGCAUCCCCAUUACCUAUGGACACGGUGCCAAAAGCUCUCUUGCGGGAGUUGUCCCCGGAGCUUGCCGAAAGGUUUCC
The experiment can be described thus: in-line probing. The settings on record: 1 mM tested; preliminary analysis.

Experiment [3] has as its system SAM-Chlorobi RNA (second construct, shorter 3' end) (RNA, mRNA element) GGAUUUUCCGGCAUCCCCAUUACCUAUGGACACGGUGCCAAAAGCUCUCUUGCGGGAGUUGUCCCCGGAGCUUGCCGAAAGGUUUCCCGUGUCCCGUUUGUCCC
The experiment can be described thus: in-line probing. The settings on record: 1 mM tested; preliminary analysis.

Experiment [4] concerns SK209-52 RNA (RNA, riboswitch, extra 5' G residues added for transcription (asterisks in Figure 1b)) GGUACCUGUCACAACGGCUUCCUGGCGUGACGAGGUGACCUCAGUGGAGCAA
The experiment can be described thus: in-line probing.

The test system of experiment [5] is SAM-Chlorobi RNA (fourth construct, shortest 3' end) (RNA, mRNA element) GGAUUUUCCGGCAUCCCCAUUACCUAUGGACACGGUGCCAAAAGCUCUCUUGCGGGAGUU
The experiment is described as follows: in-line probing. As to conditions: 1 mM tested; preliminary analysis.

The subject of experiment [6] is SAM-Chlorobi RNA (longest construct) (RNA, mRNA element) GGAUUUUCCGGCAUCCCCAUUACCUAUGGACACGGUGCCAAAAGCUCUCUUGCGGGAGUUGUCCCCGGAGCUUGCCGAAAGGUUUCCCGUGUCCCGUUUGUCCCUCCGCGACAUUCACCUUCACGAGAAAACCGCAUCGGCAAACCGCCGGACACCUGCCGUUCUUGUCGUUCGAUUAACAAAAAACCGAAAGGGAAACUA
The experiment is described as follows: in-line probing. The settings on record: 1 mM tested; preliminary analysis.

Regarding `O=P(O)(O)OC[C@H]1O[C@H](OP(=O)(O)OP(=O)(O)O)[C@H](O)[C@@H]1O`, the binding result in experiment [1] is reported as “no”.
With `C[S+](CC[C@H](N)C(=O)O)C[C@H]1O[C@@H](n2cnc3c(N)ncnc32)[C@H](O)[C@@H]1O` (some centres unmarked), the binding entry in experiment [2], in experiment [3], in experiment [5] and in experiment [6] was “no” throughout. The KD in experiment [4] (SAM samples contain some SAH from spontaneous demethylation, apparent) is on record as ~ 8.6 μM.
Take `Nc1ncnc2c1ncn2[C@@H]1O[C@H](CSCC[C@H](N)C(=O)O)[C@@H](O)[C@H]1O`: the binding entry in experiment [2], in experiment [3], in experiment [5] and in experiment [6] was “no” throughout. Further, the KD in experiment [4] is recorded as ~ 4.3 μM.
